# Test results reported in publication PMC11106165, “Repurposing the KCa3.1 Blocker Senicapoc for Ischemic Stroke” (Translational Stroke Research, 2023).
# Like-named read-outs stand apart in the source and are kept apart here.
# Key:
# [1] = test system: male C57BL/6 J mice, tMCAO; assay: tMCAO in mice, 14-point tactile and proprioceptive limb-placing score; assay type: in vivo, mouse; conditions: for maximum neurological score reached: vehicle maximum 5; for average neurological score (14-point): started 12 h, day 8, vehicle average 3
# Description: Reversible focal cerebral ischemia was induced by occlusion of the left middle cerebral artery (MCA) according to the classic filament method of Zea Longa as previously described for mice by our laboratory. All surgeries were performed in the MicroSurgery Core of the UC Davis School of Medicine by a microsurgeon with 20 years of surgical experience using a silicone rubber-coated nylon monofilament with a tip diameter of 0.21 ± 0.02 mm (No. 702112PK5Re, Doccol Corporation). Anesthesia was induced with 5% isoflurane and then maintained with 0.5 to 1.5% isoflurane in medical pure oxygen administered through a facemask. To assure consistent and continuous reduction of cerebral blood flow (CBF), a laser Doppler (Moor Instruments: MOORVMS-LDF) probe adapter was affixed to the surface of the skull over the brain area supplied by the MCA using dental cement. The probe remained in place throughout the MCAO surgery and CBF was measured continuously to confirm occlusion and later establishment of reperfusion. Animals were kept under anesthesia and body temperature was monitored throughout the whole procedure and maintained at > 36.5 °C using a feedback-controlled heating pad. Following 60 min of MCAO, the filament was withdrawn to allow reperfusion. Blood flow measurements were continued for another 15 min before removing the adapter and the laser Doppler probe. Animals received subcutaneous Buprenex at 0.02 mg/kg every 12 h to limit post-surgical pain for 24 h after surgery. The survival rate was 93%. […] In this study, out of the animals surviving to day 8 (45 out of 48), two animals were excluded because they lacked an obvious neurological deficit score at 12 h. Animals that met inclusion criteria were assigned to the 3 groups (low- and high-dose senicapoc or vehicle) based on a computer-generated randomization scheme. Six sham animals, where the filament was placed into the external carotid artery but not advanced, were used as controls for the qPCR experiments.
# Starting at 12 h after tMCAO, and following the first neurological scoring, animals received either the vehicle, Miglyol 812 neutral oil (Medium chain triglycerides, Spectrum Chemicals), a low dose of senicapoc at 10 mg/kg, or a high dose of senicapoc at 40 mg/kg via intraperitoneal (IP) injection. Mice then received the same dosage of senicapoc (or vehicle) IP every 12 h for a total of 14 doses. In the experiment in Fig. 7, drug administration was started 3 h after reperfusion. Senicapoc was synthesized in our laboratory as described. Chemical identity and purity (> 98%) were tested by ^1H and ^13C-NMR and HPLC.
# Since filament MCAO induces infarction in both the striatum and the cortex, we used the 14-point score tactile and proprioceptive limp-placing test to evaluate mice every 24 h. […] The scoring was performed as previously described in detail. The investigator performing the scoring was blinded to the treatment groups.
# [2] = Brain tissue extract binding by rapid equilibrium dialysis; assay type: in vitro ADME; conditions: mouse brain extract, triplicate
# Description: In order to determine whether senicapoc sufficiently engages its target, additional mice were subjected to 60 min of MCAO, treated with 40 mg/kg senicapoc IP 12 h after reperfusion and then sacrificed 1 h, 4 h, and 12 h later. Mice were deeply anesthetized with isoflurane, and blood was collected from the vena cava into EDTA tubes, and then transcardially perfused with 30 mL of saline. The brain was removed, and the forebrain divided into ipsi- and contralateral side. Brain and plasma samples were stored at − 80 °C pending analysis and then prepared and analyzed as previously described using a Waters Acquity UPLC (Waters, NY) equipped with a Acquity UPLC BEH 1.7 μm C-18 column interfaced to a TSQ Quantum Access Max mass spectrometer (Thermo Fisher Scientific, MA). Senicapoc was analyzed by the selective reaction monitoring transition of its molecular ion peak 324.09 (M + 1) into 228.07, 200.07, 183.11, and 122.18 m/z. An 8-point calibration curve ranging from 50 nM to 10 μM was used for quantification. Senicapoc plasma protein binding was determined with mouse plasma or mouse brain extract in triplicate using rapid equilibrium devices with a molecular weight cutoff of 8 kD (RED, Fisher Scientific).
# [3] = humans; cited from earlier work
# [4] = design: method as in PMID 31019997; conditions: mice; cited from earlier work
structure (smiles),measurement,setting,value
NC(=O)C(c1ccccc1)(c1ccc(F)cc1)c1ccc(F)cc1 [senicapoc],maximum neurological score reached,[1]; 10 mg/kg low-dose group,9
same,average neurological score (14-point),[1]; 10 mg/kg,7
same,maximum neurological score reached,[1]; 40 mg/kg high-dose group,10
same,sensorimotor coordination (neurological deficit score),[1]; 40 mg/kg started 3 h after tMCAO,improved on both day 3 and day 8
same,average neurological score (14-point),[1]; 40 mg/kg,9
same,binding to brain tissue extract,[2],98.1 ± 0.5%
same,half-life,[3],288 h
same,half-life,[4],1 h
